ChEMBL document CHEMBL3046519, “Synthesis and biological evaluation of some pyrazole derivatives as anti-inflammatoryantibacterial agents” (2012)
In brackets after ≈: the same amount, converted by molar mass. Activity calls are given as the source filed them. The calls are words filed in the database; no cut-off is given here.

Legend:
Rattus norvegicus [1] = assay: Anti-inflammatory activity in Rattus norvegicus Wistar albino (rat) assessed as inhibition of carrageenan-induced paw edema at 50 mg/kg, po administered for 30 min prior to carrageenan challenge measured at 4 hr relative to control; assay type: functional
Rattus norvegicus [2] = assay: Anti-inflammatory activity in Rattus norvegicus Wistar albino (rat) assessed as inhibition of carrageenan-induced paw edema at 50 mg/kg, po administered for 30 min prior to carrageenan challenge measured at 1 hr relative to control; assay type: functional
Bacillus subtilis [3] = assay: Antibacterial activity against Bacillus subtilis MTCC 121 at 4 mg/ml after 24 hr by agar well diffusion method; assay type: functional; settings: MTCC 121, 24 h, read-out: DIZ
Rattus norvegicus [4] = assay: Anti-inflammatory activity in Rattus norvegicus Wistar albino (rat) assessed as inhibition of carrageenan-induced paw edema at 50 mg/kg, po administered for 30 min prior to carrageenan challenge measured at 3 hr relative to control; assay type: functional
Rattus norvegicus [5] = assay: Anti-inflammatory activity in Rattus norvegicus Wistar albino (rat) assessed as inhibition of carrageenan-induced paw edema at 50 mg/kg, po administered for 30 min prior to carrageenan challenge measured at 2 hr relative to control; assay type: functional
Staphylococcus aureus [6] = assay: Antibacterial activity against Staphylococcus aureus MTCC 96 at 4 mg/ml after 24 hr by agar well diffusion method; assay type: functional; settings: MTCC 96, 24 h, read-out: DIZ
Escherichia coli = assay: Antibacterial activity against Escherichia coli MTCC 1652 at 4 mg/ml after 24 hr by agar well diffusion method; assay type: functional, organism-based
Pseudomonas aeruginosa = settings: MTCC 741, 4 mg/ml
Description: Antibacterial activity against Pseudomonas aeruginosa MTCC 741 at 4 mg/ml after 24 hr by agar well diffusion method

Staphylococcus aureus [7] = assay: Antibacterial activity against Staphylococcus aureus MTCC 96 by NCCLS broth macrodilution method; assay type: functional
Bacillus subtilis [8] = assay: Antibacterial activity against Bacillus subtilis MTCC 121 by NCCLS broth macrodilution method; assay type: functional

Structure (SMILES) | inhibition in vivo at 50 mg/kg (Rattus norvegicus [1]) [%] | inhibition in vivo at 50 mg/kg (Rattus norvegicus [2]) [%] | zone of inhibition at 4000 µg/mL (Bacillus subtilis [3]) [mm] | inhibition in vivo at 50 mg/kg (Rattus norvegicus [4]) [%] | inhibition in vivo at 50 mg/kg (Rattus norvegicus [5]) [%] | zone of inhibition at 4000 µg/mL (Staphylococcus aureus [6]) [mm] | diameter of the inhibition zone (DIZ) (Escherichia coli) | DIZ (Pseudomonas aeruginosa) | MIC (Staphylococcus aureus [7]) [µg/mL] | MIC (Bacillus subtilis [8]) [µg/mL]
NC(=S)N/N=C/c1cn(-c2ccc(S(N)(=O)=O)cc2)nc1-c1ccc(Cl)cc1 | 71 | 33 | 13.6 | 77 | 76 | 14 | inactive | inactive | > 128 | > 128
COc1ccc(-c2nn(-c3ccc(S(N)(=O)=O)cc3)cc2/C=N/Nc2nc(-c3ccc(Cl)cc3)cs2)cc1 | 71 | 32 | 14.3 | 69 | 66 | 13.6 | inactive | inactive | > 128 | > 128
NS(=O)(=O)c1ccc(-n2cc(/C=N/Nc3nc(-c4ccccc4)cs3)c(-c3ccc(Cl)cc3)n2)cc1 | 56 | 22 | 15.6 | 57 | 62 | 13.3 | inactive | inactive | > 128 | > 128
Cc1ccc(-c2nn(-c3ccc(S(N)(=O)=O)cc3)cc2/C=N/Nc2nc(-c3ccccc3)cs2)cc1 | 56 | 33 | 13.6 | 75 | 60 | 15.3 | inactive | inactive | > 128 | > 128
COc1ccc(-c2nn(-c3ccc(S(N)(=O)=O)cc3)cc2/C=N/NC(N)=S)cc1 | 71 | 28 | 15 | 59 | 76 | 13.6 | inactive | inactive | > 128 | > 128
Cc1ccc(-c2csc(N/N=C/c3cn(-c4ccc(S(N)(=O)=O)cc4)nc3-c3ccc(F)cc3)n2)cc1 | 70 | 33 | 14.3 | 73 | 72 | 15.6 | inactive | inactive | > 128 | > 128
NC(=S)N/N=C/c1cn(-c2ccc(S(N)(=O)=O)cc2)nc1-c1ccccc1 | 63 | 35 | 19.6 | 67 | 59 | 17 | inactive | inactive | 128 (≈ 320 µM) | 64 (≈ 160 µM)
Cc1ccc(-c2csc(N/N=C/c3cn(-c4ccc(S(N)(=O)=O)cc4)nc3-c3ccc(Cl)cc3)n2)cc1 | 73 | 5 | 14.6 | 70 | 61 | 15.3 | inactive | inactive | > 128 | > 128
NS(=O)(=O)c1ccc(-n2cc(/C=N/Nc3nc(-c4ccccc4)cs3)c(-c3ccccc3)n2)cc1 | 72 | 33 | 14.6 | 69 | 71 | 14.3 | inactive | inactive | > 128 | > 128
Cc1ccc(-c2csc(N/N=C/c3cn(-c4ccc(S(N)(=O)=O)cc4)nc3-c3ccc(C)cc3)n2)cc1 | 61 | 24 | 14 | 75 | 72 | 13.6 | inactive | inactive | > 128 | > 128
